{"source": "patent US20170290891A1", "about": "“METHOD OF BONE REGENERATION OR BONE AUGMENTATION” (TOYOBO CO., LTD., priority 2016, published 2017)", "key": {"[1]": {"test_system": "standardized full-thickness bone defect of the calvarium", "assay": "Test Example 1: rat calvarium bone defect, OCP or β-TCP collagen composite + teriparatide subcutaneous injection", "format": "in vivo, Male Wistar rats", "excerpt": "Male Wistar rats (12 weeks old) were each intraperitoneally anesthetized, and a skin incision and a periosteal incision were made in the calvarium part to expose the calvarium. A standardized full-thickness bone defect (diameter: about 9 mm), for which spontaneous recovery could not be expected, was created. Then, one OCP/collagen composite disc produced in Production Example 2 or one β-TCP/collagen composite disc produced in Production Example 3 was implanted therein. As the control, rats in which only a bone defect was created, and no sample was implanted (untreated group) were prepared. After the sample was implanted, the periosteum and skin were sutured, and the surgery was completed. […] In the rats of the teriparatide subcutaneous injection group, 10 μg/kg of the teriparatide prepared in Production Example 5 was subcutaneously injected immediately after surgery and every day thereafter. Subcutaneous injection was performed in such a manner that the thawed teriparatide solution was sucked by a 1-mL syringe (27 G injection needle), the back skin was sterilized with a dilute Hibitane solution, and then a considerable amount of teriparatide solution was injected subcutaneously in the back. The observation period after surgery was 8 weeks for each group, and 5 rats were used in each period. […] Similarly, after CT photography 8 weeks after surgery, the rats were euthanized under anesthesia with an excess amount of pentobarbital. […] Then, tissue sections (thickness: […]) cut in the frontal plane were prepared, and a histological search was performed by hematoxylin-eosin staining. Further, using the plural tissue sections corresponding to the center of the defect of each sample, the ratio of new bone (n-Bone %) in the created defect was examined by histological quantification. Variance analysis, etc., were conducted using the average value and standard deviation of n-Bone % in each group, and a significance test was conducted. The significance level was set at 5%."}, "local bone formation": {"test_system": "local bone formation", "details": "subcutaneous administration of PTH; NPL 2; cited from earlier work"}}}
{"smiles": "CC[C@H](C)[C@H](NC(=O)[C@H](CCC(=O)O)NC(=O)[C@H](CO)NC(=O)[C@@H](NC(=O)[C@@H](N)CO)C(C)C)C(=O)N[C@@H](CCC(N)=O)C(=O)N[C@@H](CC(C)C)C(=O)N[C@@H](CCSC)C(=O)N[C@@H](Cc1cnc[nH]1)C(=O)N[C@@H](CC(N)=O)C(=O)N[C@@H](CC(C)C)C(=O)NCC(=O)N[C@@H](CCCCN)C(=O)N[C@@H](Cc1cnc[nH]1)C(=O)N[C@@H](CC(C)C)C(=O)N[C@@H](CC(N)=O)C(=O)N[C@@H](CO)C(=O)N[C@@H](CCSC)C(=O)N[C@@H](CCC(=O)O)C(=O)N[C@@H](CCCN=C(N)N)C(=O)N[C@H](C(=O)N[C@@H](CCC(=O)O)C(=O)N[C@@H](Cc1c[nH]c2ccccc12)C(=O)N[C@@H](CC(C)C)C(=O)N[C@@H](CCCN=C(N)N)C(=O)N[C@@H](CCCCN)C(=O)N[C@@H](CCCCN)C(=O)N[C@@H](CC(C)C)C(=O)N[C@@H](CCC(N)=O)C(=O)N[C@@H](CC(=O)O)C(=O)N[C@H](C(=O)N[C@@H](Cc1cnc[nH]1)C(=O)N[C@@H](CC(N)=O)C(=O)N[C@@H](Cc1ccccc1)C(=O)O)C(C)C)C(C)C", "note": "[teriparatide]", "values": [{"measurement": "ratio of new bone (n-Bone %) in the defect", "setting": "[1]; 8 weeks after surgery, PTH groups: teriparatide 10 μg/kg subcutaneously every day, FIG. 5", "value": "31.1±10.2", "unit": "%"}, {"measurement": "X-ray photographs of the bone defect sites, living state (radiopaque image)", "setting": "[1]; FIG. 1, PTH groups: teriparatide 10 μg/kg s.c. daily", "value": "radiopaque images in the defects were equally scarce"}, {"measurement": "X-ray photographs of the calvarium and the surrounding tissue (radiopaque image)", "setting": "[1]; FIG. 2, PTH groups: teriparatide 10 μg/kg s.c. daily", "value": "their thickness was thinner than that of the existing bone"}, {"measurement": "stained pathological specimens, low-magnification (×1.25)", "setting": "[1]; FIG. 3, 8 weeks after surgery, hematoxylin-eosin", "value": "thin bone tissue extending from the defect margins"}, {"measurement": "stained pathological specimens, high-magnification", "setting": "[1]; FIG. 4, 8 weeks after surgery, hematoxylin-eosin", "value": "thin new bone extended from the defect margins"}, {"measurement": "new bone formation (summary of FIGS. 1 to 5)", "setting": "[1]; teriparatide 10 μg/kg s.c. daily, 8 weeks", "value": "new bone formation was not observed"}, {"measurement": "local bone formation", "setting": "local bone formation", "value": "significantly promoted"}]}
